# Data reported in patent US5684151A, “1-arylsulphonyl, arylcarbonyl and 1-arylphosphonyl-3-phenyl-1,4,5,6-tetrahydropyridazines” (priority 1995, dated 1997).
# Where two headings read alike, the source gives them in different places.
# Experiments:
# [1] = target: T1, progestin receptor from rabbit uterus (Oryctolagus cuniculus, UniProt P06186); experiment: Progestin receptor binding (3H-R5020 displacement); details: rabbit uterine cytosol, 4° C., 18 h, read-out: IC50: Binding affinity for the progestin receptor from rabbit uterus
# T1 construct: Cytosolic progestin receptor were obtained by mixing rabbit uterine tissue with a Tris buffer; from tissue; host or cells: rabbit uterus cytosol
# Procedure, shortened: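 Displacement of the radioligand 3H-R5020 was measured in cytosol from homogenized rabbit uterus (pH 7.4 Tris/EDTA/DTT/molybdate buffer), with compounds at 5% final DMSO and about 18 h at 4 °C. Charcoal removed free ligand, scintillation counting quantified bound ligand, and IC50 was the concentration displacing half.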
# [2] = system: mouse (MC3T3-E1) and human (TE-85) osteoblast-line cells; format: cell-based
# Procedure, shortened: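 Proliferation was read as ^3H-thymidine (0.4 μCi) uptake during a 4 h pulse, which started 20 h after compound addition. Before dosing, cells sat 24 h in 0.1% FBS. Values are % times control (100%).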
# T1 sequence (P06186 whole entry): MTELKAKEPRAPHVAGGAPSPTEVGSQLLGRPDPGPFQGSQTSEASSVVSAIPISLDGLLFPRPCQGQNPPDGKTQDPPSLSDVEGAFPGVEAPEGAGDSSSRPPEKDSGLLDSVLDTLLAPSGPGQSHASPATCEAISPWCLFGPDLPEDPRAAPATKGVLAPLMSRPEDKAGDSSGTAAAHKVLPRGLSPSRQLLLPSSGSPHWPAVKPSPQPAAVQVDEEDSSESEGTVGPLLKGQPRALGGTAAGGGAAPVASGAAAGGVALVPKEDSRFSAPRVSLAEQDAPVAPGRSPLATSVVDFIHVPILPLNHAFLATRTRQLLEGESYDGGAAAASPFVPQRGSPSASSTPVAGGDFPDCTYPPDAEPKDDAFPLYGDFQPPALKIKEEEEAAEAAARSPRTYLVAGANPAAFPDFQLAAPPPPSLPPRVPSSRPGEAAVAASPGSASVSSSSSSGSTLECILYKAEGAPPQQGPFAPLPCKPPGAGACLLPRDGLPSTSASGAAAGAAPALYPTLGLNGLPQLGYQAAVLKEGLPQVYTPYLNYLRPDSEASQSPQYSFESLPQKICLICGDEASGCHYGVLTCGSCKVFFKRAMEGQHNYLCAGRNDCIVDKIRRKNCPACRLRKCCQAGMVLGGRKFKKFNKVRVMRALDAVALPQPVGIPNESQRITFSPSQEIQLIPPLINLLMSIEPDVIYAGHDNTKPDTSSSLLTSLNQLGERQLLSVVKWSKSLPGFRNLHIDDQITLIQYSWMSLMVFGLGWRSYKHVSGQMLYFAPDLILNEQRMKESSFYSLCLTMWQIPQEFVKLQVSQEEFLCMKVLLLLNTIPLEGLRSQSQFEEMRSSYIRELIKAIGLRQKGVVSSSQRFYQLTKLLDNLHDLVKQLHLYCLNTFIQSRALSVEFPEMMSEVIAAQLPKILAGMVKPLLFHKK
SMILES,IC50 [1] [nM],"Osteoblast Cell Proliferation, 3H-thymidine incorporation vs control (100%) ([2]; 10^-6) [%]","Osteoblast Cell Proliferation, 3H-thymidine incorporation vs control (100%) ([2]; 10^-7) [%]","Osteoblast Cell Proliferation, 3H-thymidine incorporation vs control (100%) ([2]; 10^-8) [%]","Osteoblast Cell Proliferation, 3H-thymidine incorporation vs control (100%) ([2]; 10^-9) [%]","Osteoblast Cell Proliferation, 3H-thymidine incorporation vs control (100%) ([2]; 10^-10) [%]"
O=[N+]([O-])c1cccc(S(=O)(=O)N2CCCC(c3ccc(Cl)cc3)=N2)c1 [Compound 14],7,96,109,118,136,139
Cc1ccc(S(=O)(=O)N2CCCC(c3ccc4c(c3)CCCC4)=N2)cc1 [Compound 87],82.2,120,115,125,117,127
COc1ccc(C2=NN(S(=O)(=O)c3ccccc3)CCC2)cc1 [Compound 64],550,116,115,121,128,137
O=S(=O)(c1ccc2ccccc2c1)N1CCCC(c2ccc(F)cc2)=N1 [Compound 25],49,87,106,101,99,90
CC(C)(C)c1ccc(C(=O)N2CCCC(c3ccc(Cl)cc3)=N2)cc1 [Compound 195],100000,103,114,125,127,136
O=[N+]([O-])c1ccc(S(=O)(=O)N2CCCC(c3ccc(Cl)c(Cl)c3)=N2)cc1 [Compound 38],5.29,76,73,54,49,37
O=S(=O)(c1ccc2ccccc2c1)N1CCCC(c2ccccc2)=N1 [Compound 51],203,119,120,144,126,158
CCCCc1ccc(C2=NN(S(=O)(=O)c3ccc(I)cc3)CCC2)cc1 [Compound 71],10000,110,114,99,103,98
O=S(=O)(/C=C/c1cccc(Cl)c1)N1CCCC(c2ccc(Cl)c(Cl)c2)=N1 [Compound 172],32,134,108,103,106,113
Cc1ccc(S(=O)(=O)N2CCCC(c3ccccc3)=N2)cc1 [Compound 2],3000,105,119,99,91,77
COc1ccc(C2=NN(C(=O)c3ccc(Cl)c(Cl)c3)CCC2)cc1 [Compound 189],100000,89,112,98,122,128
O=S(=O)(c1cc(Cl)ccc1Cl)N1CCCC(c2ccc3c(c2)CCCC3)=N1 [Compound 89],21.6,115,97,113,106,98
COc1ccc(C2=NN(S(=O)(=O)c3ccc4ccccc4c3)CCC2)cc1 [Compound 65],57,90,98,94,88,80
CCOP(=O)(c1ccccc1)N1CCCC(c2ccccc2)=N1 (centres unmarked) [Compound 253],688,151,124,143,142,157
CC(C)(C)c1ccc(C(=O)N2CCCC(c3ccccc3)=N2)cc1 [Compound 197],100000,87,89,91,81,52
O=C(c1cccc(Cl)c1)N1CCCC(c2ccc(Cl)cc2)=N1 [Compound 199],100000,105,104,96,83,61
COc1ccc(C(=O)N2CCCC(c3ccc(OC)cc3)=N2)cc1 [Compound 182],100000,95,108,118,139,115
O=S(=O)(c1ccc(I)cc1)N1CCCC(c2ccc3c(c2)CCCC3)=N1 [Compound 113],27.6,66,94,102,102,90
O=S(=O)(c1ccccc1)N1CCCC(c2ccc3c(c2)CCCC3)=N1 [Compound 90],71.7,90,95,68,68,42
CCOP(=O)(c1ccccc1)N1CCCC(c2ccc(Cl)c(C(F)(F)F)c2)=N1 (centres unmarked) [Compound 262],958,99,104,102,110,141
CC1CC(c2ccccc2)=NN(S(=O)(=O)c2cc(Cl)ccc2Cl)C1 (centres unmarked) [Compound 144],71.7,,112,122,117,108
O=S(=O)(c1ccc(Cl)cc1)N1CCCC(c2ccc3c(c2)CCCC3)=N1 [Compound 88],10.2,97,109,89,74,62
CCOP(=O)(c1ccccc1)N1CCCC(c2ccc(Cl)c(Cl)c2)=N1 (centres unmarked) [Compound 255],204,107,125,139,132,145
COc1ccc(C2=NN(C(=O)c3ccc(C(C)(C)C)cc3)CCC2)cc1 [Compound 201],100000,89,117,91,69,52
